# Assay results: paper PMC10601815, “αβ,α′β′-Diepoxyketones are mechanism-based inhibitors of nucleophilic cysteine enzymes” (Chemical Communications (Cambridge, England), 2023)
# Values joined by “and” are separate entries in the source; they are usually repeats but may differ in a detail not shown here. Equal entries are not always repeated. Where two headings read alike, the source gives them in different places.
# Legend:
# [1] = for kchem (kinetic rate constant for reactivity with GSH): 500 nM L-glutathione, 10 µM Probe 1, pH 7.2; for half-life (t1/2) of reaction with GSH: buffer
# [2] = biological target: T1, LdtMt2 (Mycobacterium tuberculosis, UniProt I6Y9J2); assay type: binding
# T1 sequence (I6Y9J2 56-408): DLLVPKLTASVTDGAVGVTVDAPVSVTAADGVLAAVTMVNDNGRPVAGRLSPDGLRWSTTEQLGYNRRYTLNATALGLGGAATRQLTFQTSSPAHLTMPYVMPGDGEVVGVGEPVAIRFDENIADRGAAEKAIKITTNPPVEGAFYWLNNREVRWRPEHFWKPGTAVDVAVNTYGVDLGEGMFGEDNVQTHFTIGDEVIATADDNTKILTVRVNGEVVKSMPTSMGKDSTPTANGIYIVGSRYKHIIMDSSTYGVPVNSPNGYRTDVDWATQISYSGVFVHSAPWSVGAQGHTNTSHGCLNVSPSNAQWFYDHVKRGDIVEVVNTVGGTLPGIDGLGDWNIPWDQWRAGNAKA
# [3] = biological target: T1, LdtMt2; test: biochemical
# [4] = biological target: T1, LdtMt2; test: biochemical; conditions: for IC50: read-out: pIC50 LdtMt2 (converted)
# [5] = 1 µM LdtMt2, inhibitor 20 µM (100 µM for 12), rt, 15 min
# [6] = 1 µM LdtMt2, inhibitor 20 µM (100 µM for 12), rt, 24 h
SMILES,kchem (kinetic rate constant for reactivity with GSH) [1],"Area (%) 15 min, assignment Retro-aldol fragment (3) [2]","Area (%) 15 min, assignment Unfragmented (2) [2]","Area (%) 15 min, assignment Unmodified LdtMt2 [2]","Area (%) 24 h, assignment Dha (-34 Da) [2]","Area (%) 24 h, assignment Retro-aldol fragment (3) [2]","Area (%) 24 h, assignment Unfragmented (2) [2]","Area (%) 24 h, assignment Unmodified LdtMt2 [2]",kinact/KI LdtMt2 [3],pIC50 LdtMt2 [4],further results
COc1ccccc1C1OC1C(=O)C1OC1c1ccccc1OC (mixture of isomers) [DEK 5],< 0.8 M⁻¹ s⁻¹,9.0%,77.9%,2.5%,~30% and 30.4%,39.6%,0.0%,0.0%,61.1 ± 2.78 M⁻¹ s⁻¹,–,"Area (%) 15 min, adduct with assignment N.D. (+309 Da for 5, +80 Da for 8 and 9) [2]: 0.0%; Area (%) 15 min, assignment Dha (-34 Da) [2]: 0.0%; Area (%) 15 min, assignment Unassigned fragment / Fragment II (+56/+57 Da) [2]: 0.0%; Area (%) 24 h, adduct with assignment N.D. (+309 Da for 5, +80 Da for 8 and 9) [2]: 4.22%"
Cc1cccc(C)c1C1OC1C(=O)C1OC1c1c(C)cccc1C (mixture of isomers) [DEK 8],1.11 ± 0.20 M⁻¹ s⁻¹ and 1.1 ± 0.2 M⁻¹ s⁻¹,0.0%,–,100.0%,–,16.3%,–,68.8%,< 10.0 M⁻¹ s⁻¹,–,"half-life (t1/2) of reaction with GSH [1]: 38 min; Area (%) 15 min, adduct with assignment N.D. (+309 Da for 5, +80 Da for 8 and 9) [2]: 0.0%; Area (%) 24 h, adduct with assignment N.D. (+309 Da for 5, +80 Da for 8 and 9) [2]: 14.9%; inhibition of LdtMt2 in the kinact/KI determination (in words) [3]: no evidence for inhibition"
O=C(C1OC1c1ccccc1)C1OC1c1ccccc1 (mixture of isomers) [diastereomeric mixture of 1],–,–,–,–,–,–,–,–,–,5.59 ± 0.036 and 5.6 ± 0.04,–
"O=C(c1ccccc1)C1OC1c1ccccc1 (racemic) [Epoxide 12, reference compound]",–,0.0%,8.6%,91.4%,–,87.2%,0.0%,12.8%,–,< 4.4,covalent reaction with LdtMt2 (in words) [2]: evidenced covalent reaction; inhibition of LdtMt2 in dose-response assays (in words) [4]: did not manifest inhibition
Cc1cc(C)cc([C@@H]2O[C@H]2C(=O)[C@@H]2O[C@H]2c2cc(C)cc(C)c2)c1 (relative stereo) [DEK 7],1.71 ± 0.24 M⁻¹ s⁻¹ and 1.7 ± 0.2 M⁻¹ s⁻¹,43.7%,44.8%,11.5%,~16% and 16.2%,70.3%,0.0%,0.0%,80.9 ± 6.74 M⁻¹ s⁻¹,–,"half-life (t1/2) of reaction with GSH [1]: 24 min; Area (%) 15 min, assignment Dha (-34 Da) [2]: 0.0%; Area (%) 15 min, assignment Unassigned fragment / Fragment II (+56/+57 Da) [2]: 0.0%"
O=C([C@H]1O[C@@H]1c1ccccc1)[C@@H]1O[C@H]1c1ccccc1 [DEK 1],< 0.8 M⁻¹ s⁻¹,–,–,–,–,–,–,–,–,–,"Area (%) 15 min, assignment Dha (-34 Da) [2, 5]: 0.0%; Area (%) 15 min, assignment Retro-aldol fragment (3) [2, 5]: 23.3%; Area (%) 15 min, assignment Unfragmented (2) [2, 5]: 74.7%; Area (%) 15 min, assignment Unmodified LdtMt2 [2, 5]: 2.0%; Area (%) 24 h, assignment Dha (-34 Da) [2, 6]: ~5% and 5.0%; Area (%) 24 h, assignment Retro-aldol fragment (3) [2, 6]: 82.0%; Area (%) 24 h, assignment Unfragmented (2) [2, 6]: 7.2%; Area (%) 24 h, assignment Unmodified LdtMt2 [2, 6]: 0.0%; Area (%) 15 min, assignment Unassigned fragment / Fragment II (+56/+57 Da) ([2]; 1 µM LdtMt2, inhibitor 20 µM, rt, 15 min): 0.0%; covalent reaction with LdtMt2 (in words) ([2]; 1 µM LdtMt2, inhibitor 20 µM (100 µM for 12)): covalently reacts with LdtMt2; time for conversion of the initial adduct (2, +267 Da) into the +160 Da adduct (3) ([2]; 1 (20 µM), LdtMt2 (1 µM)): ≤ 2 h; IC50 ([4]; 15 min preincubation, 100 nM LdtMt2, 25 µM Probe 1, n=4): 617 nM and 631 nM; IC50 ([4]; 30 min pre-incubation): 63.1 nM; IC50 ([4]; Table S3, 10 min pre-incubation, 100 nM LdtMt2, 25 µM Probe 1): 1000 nM; kinact/KI ([3]; 100 nM LdtMt2, 10 µM Probe 1, 3.5 h): 484 ± 28.4 M⁻¹ s⁻¹"
O=C(C1OC1c1ccc(OC(F)(F)F)cc1)C1OC1c1ccc(OC(F)(F)F)cc1 (stereo not shown) [DEK 4],< 0.8 M⁻¹ s⁻¹,18.1%,5.41%,76.5%,~2.5% and 2.4%,97.6%,0.0%,0.0%,< 10.0 M⁻¹ s⁻¹,–,"Area (%) 15 min, assignment Dha (-34 Da) [2]: 0.0%; inhibition of LdtMt2 in the kinact/KI determination (in words) [3]: no evidence for inhibition"
O=C(C1OC1c1ccccc1OC(F)(F)F)C1OC1c1ccccc1OC(F)(F)F (stereo not shown) [DEK 6],< 0.8 M⁻¹ s⁻¹,11.6%,81.2%,7.2%,no evidence for Dha formation,93.2%,0.0%,2.6%,140.6 ± 17.1 M⁻¹ s⁻¹,–,"Area (%) 15 min, assignment Unassigned fragment / Fragment II (+56/+57 Da) [2]: 0.0%"
O=C1C2(CCC13OC3c1ccccc1)OC2c1ccccc1 (stereo not shown) [DEK 9],< 0.8 M⁻¹ s⁻¹,68.8%,21.0%,3.3%,–,90.9%,0.0%,0.0%,25.8 ± 1.41 M⁻¹ s⁻¹,–,"Area (%) 15 min, adduct with assignment N.D. (+309 Da for 5, +80 Da for 8 and 9) [2]: 6.9%; Area (%) 24 h, adduct with assignment N.D. (+309 Da for 5, +80 Da for 8 and 9) [2]: 9.1%"
O=C1C2(CCCC13OC3c1ccccc1)OC2c1ccccc1 (stereo not shown) [DEK 10],< 0.8 M⁻¹ s⁻¹,–,0.0%,100.0%,–,–,9.8%,90.2%,< 10.0 M⁻¹ s⁻¹,< 4.4,inhibition of LdtMt2 in the kinact/KI determination (in words) [3]: no evidence for inhibition
O=C1C2(CCCCC13OC3c1ccccc1)OC2c1ccccc1 (stereo not shown) [DEK 11],–,–,–,100.0%,–,–,–,100.0%,–,< 4.4,–
